In brackets after ≈: the same amount, converted by molar mass.
What was measured:
Format in all cases: cell-based
[1] = tested on: Streptococcus pneumonia; assay: Minimum Inhibitory Concentration (MIC) in water; conditions: Streptococcus pneumoniae
Text: (§1) In an embodiment of the invention, the two forms of Ciprofloxacin can be combined in a single implant so as to achieve a desired the rate of delivery, the solubility limit of the drug in middle ear exudate or release of the drug. […]. The Minimum Inhibitory Concentration is the smallest concentration of a drug in water that will inhibit growth of a particular bacteria in solution.
(§2) The quantity Minimum Inhibitory Concentration (MIC) is the smallest concentration of a drug in water that will inhibit growth of a particular organism. It may be desirable for the administered concentration of a drug to be some multiple of this quantity. MIC for Ciprofloxacin is given here for several organisms typical of otitis media. For Pseudomonas aeruginosa, the MIC is 0.09 micrograms per milliliter. […] For Haemophilus influenza, the MIC is 0.06 micrograms per milliliter.

[2] = tested on: Pseudomonas aeruginosa; assay: Minimum Inhibitory Concentration (MIC) in water
Text: as §1, §2

[3] = tested on: Haemophilus influenza; assay: Minimum Inhibitory Concentration (MIC) in water
Text: as §1, §2

[4] = tested on: Staphylococcus aureus LUX; assay: microbe, parasite or virus in culture
Text: as §1, §2

[5] = tested on: Staphylococcus aureus GFP; assay: microbe, parasite or virus in culture
Text: as §1, §2

SMILES: O=C(O)c1cn(C2CC2)c2cc(N3CCNCC3)c(F)cc2c1=O [Ciprofloxacin]
- MIC [1]: 0.75 µg/mL (≈ 2.26 µM)
- MIC [2]: 0.09 µg/mL (≈ 0.272 µM)
- MIC [3]: 0.06 µg/mL (≈ 0.181 µM)
- MIC [4]: 0.28 µg/mL (≈ 0.845 µM)
- MIC [5]: 0.28 µg/mL (≈ 0.845 µM)

— patent US10285865B2, “Drug-releasing device usable in mucosal body cavities” (Princeton Trade & Technololgy, Inc., priority 2014, dated 2019)
